Measured values: patent US20250059171A1 (Hoffmann-La Roche Inc., priority 2021, published 2025)

Key:
[1] = molecular target: SARS-CoV-2 3CLpro (Severe acute respiratory syndrome coronavirus 2, UniProt P0DTD1); test: biochemical
[2] = molecular target: SARS-CoV 3CLpro (Severe acute respiratory syndrome coronavirus, UniProt P0C6X7); test: biochemical
[3] = molecular target: MERS-CoV 3CLpro (Middle East respiratory syndrome-related coronavirus, UniProt K9N7C7); test: biochemical
[4] = molecular target: HCoV-229E 3CLpro (Human coronavirus 229E, UniProt P0C6X1); test: HCoV-229E 3CLpro inhibition assay (FRET); type: biochemical
Chain of HCoV-229E 3CLpro (P0C6X1 2966-3267): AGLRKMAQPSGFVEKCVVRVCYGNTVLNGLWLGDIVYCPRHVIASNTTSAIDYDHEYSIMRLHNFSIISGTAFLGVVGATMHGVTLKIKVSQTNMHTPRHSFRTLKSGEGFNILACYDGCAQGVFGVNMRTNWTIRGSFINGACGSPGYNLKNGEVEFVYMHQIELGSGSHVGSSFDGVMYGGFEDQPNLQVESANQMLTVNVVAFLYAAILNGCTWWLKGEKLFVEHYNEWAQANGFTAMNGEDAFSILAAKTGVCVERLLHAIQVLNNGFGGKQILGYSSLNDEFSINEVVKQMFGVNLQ

Chain of MERS-CoV 3CLpro (K9N7C7 3248-3553): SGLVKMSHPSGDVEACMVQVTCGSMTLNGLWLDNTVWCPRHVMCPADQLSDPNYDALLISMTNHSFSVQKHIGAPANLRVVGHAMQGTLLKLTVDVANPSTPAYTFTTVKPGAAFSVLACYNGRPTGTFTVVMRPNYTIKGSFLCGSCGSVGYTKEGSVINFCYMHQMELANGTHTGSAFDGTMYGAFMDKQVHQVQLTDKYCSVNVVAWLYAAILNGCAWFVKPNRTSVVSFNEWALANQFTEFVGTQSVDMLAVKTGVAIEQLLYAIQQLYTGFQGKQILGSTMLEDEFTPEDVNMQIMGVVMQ

| Structure (SMILES) | IC50 [1] [nM] | IC50 [2] [nM] | IC50 [3] [nM] | IC50 [4] [nM] |
| --- | --- | --- | --- | --- |
| CC[C@@H](C)[C@H](NC(=O)[C@H](C)F)C(=O)N1C[C@H]2[C@@H]([C@H]1C(=O)NN(C[C@@H]1CCNC1=O)C(=O)[C@@H](F)Cl)C2(C)C [Example 122, (2S)—N-[(1S,2R)-1-[(1R,2S,5S)-2-[[[(2S)-2-chloro-2-fluoro-acetyl]-[[(3S)-2-oxopyrrolidin-3-yl]methyl]amino]carbamoyl]-6,6-dimethyl-3-azabicyclo[3.1.0]hexane-3-carbonyl]-2-methyl-butyl]-2-fluoro-propanamide] | 26 | 36 | 146 | 46 |
| CC[C@@H](C)[C@H](NC(=O)C1CC1)C(=O)N1C[C@H]2[C@@H]([C@H]1C(=O)NN(C[C@@H]1CCNC1=O)C(=O)[C@H](F)Cl)C2(C)C [Example 118, N-[(1S,2R)-1-[(1R,2S,5S)-2-[[[(2R)-2-chloro-2-fluoro-acetyl]-[[(3S)-2-oxopyrrolidin-3-yl]methyl]amino]carbamoyl]-6,6-dimethyl-3-azabicyclo[3.1.0]hexane-3-carbonyl]-2-methyl-butyl]cyclopropanecarboxamide] | 13 | 18 | 109 | 27 |
